Test results from US9586993B2, “CD44v6-derived peptides for treating pancreatic cancer” (AMCURE GMBH, priority 2012, dated 2017).
“Also recorded” adds a separate entry of the source. No end group written: not given here. *: point of attachment. DOTA = O=C(O)CN1CCN(CC(=O)O)CCN(CC(=O)*)CCN(CC(=O)O)CC1; PEG2000 = polyethylene glycol, 2000 Da; Myristoyl = CCCCCCCCCCCCCC(=O)*

Columns and labels:
BSp73ASs6 cells = test: Rat syngeneic model, subcutaneous BSp73ASs6 tumors, metastasis formation; format: in vivo; details: 200 μg per injection three times a week; for metastasis (axillary lymph nodes and lungs): intra-tumoral or intravenously, start one week after cell injection; for outgrowth of primary tumors: 28 days
Description: In the case of the rat syngeneic model, 1×10^6 pancreatic cells (BSp73AS and its transfectants) were subcutaneously injected into the right posterior flank of the animals. Tumors developed for four weeks. During this time period animals injected with BSp73ASs6 cells expressing Met-shRNA or control-shRNA received doxycycline in the drinking water. At the end of the experiment, primary tumors were isolated. Lungs and axillary lymph nodes were analyzed. The tissues were incubated for 24 h in a zinc-fixative (0.5 g calcium acetate, 5.0 g zinc acetate, 5.0 g zinc chloride, in 1 L 0.1 M Tris pH 7.4) and embedded in paraffin for further analysis. In case of peptide or antibody treatment tumors developed for one week before the first treatment. Where indicated, animals received 200 μg of peptide or antibody per injection three times per week for four weeks. Tumor growth was monitored weekly using a caliper Animals were killed at day 28 or 30 after start of the treatment.
For histomorphological analysis paraffin-embedded sections of lungs were stained with hematoxylin and eosin and periodic acid-Schiff (H&E or PAS). Serial sections of the whole tissue blocks were examined by analyzing slices every 20 μm; in each slice, the presence and the extension of the metastatic deposit was assessed, according to the procedure routinely used by pathologists to evaluate the presence of micrometastases.
Rat peptides had the sequences KEKWFENEWQGKNP (SEQ ID NO: 10) and NEWQG (SEQ ID NO: 11). BSp73ASs6 cells were subcutaneously injected into syngeneic rats and rat CD44v6 peptides of SEQ ID NO: 10 or SEQ ID NO: 11 (or mouse control peptides) or the CD44v6 antibody (or IgGs as a control) were injected intra-tumoral or intravenously three times a week. […] This is compatible with the fact that also BSp73AS cells or BSp73ASv1-10Δv6 cells can induce the formation of primary tumors similarly to the v6 transfectants.

[1] = test system: BSp73ASs6 lung metastases; test: Apoptosis in established lung metastases (cleaved Caspase-3 and Caspase-8 staining); format: in vivo, rat; details: for apoptotic cells in lung metastases (cleaved Caspase 3): injection every second day from three weeks after cell injection
Description: (§1) 7 μm thick paraffin sections were deparaffinized and rehydrated. For P-Met staining antigen unmasking was achieved by boiling the slides in 1 mM EDTA pH 8.0 followed by incubation for 15 minutes at a sub-boiling temperature, for CD31 staining the sections were treated with Proteinase K (8 μg/ml) for 10 min at 37° C. For immunofluorescence staining of P-Met, unspecific binding was blocked with 5% goat serum (DAKO, Glostrup, Denmark) (diluted in 1×PBS/0.3% Triton X-100) for 60 minutes. In the case of immunohistochemistry, endogenous peroxidases were at first blocked with 3% H2O2 in PBS followed by incubation with biotin blocking system (Dako, Glostrup, Denmark) and then unspecific binding was inhibited by incubation with 5% FCS in PBS. The sections were incubated with the P-Met antibody (D26, dilution 1:50 in 1×PBS/1% BSA/0.3% Triton X-100), Met antibody (C-28, dilution 1:50), GFP antibody (sc-101525, dilution 1:50) or antibody (5 μg/ml) over night or VFF18 (5 μg/ml) o/n at 4° C. After washing in PBS the sections were incubated with Alexa Fluor R 546 goat anti-rabbit (in case of immunofluorescence P-Met and Met staining, dilution 1:500) or a biotinylated secondary antibody (for immunohistochemical stainings rabbit anti-rat antibody for VFF18 and CD31, goat anti-rabbit for P-Met, cleaved Caspase-3 and cleaved Caspase-8 and rabbit anti-mouse for GFP, dilution 1:500) for 45 minutes. For DAB (3,3′-diaminobenzidine) staining the sections were treated with a streptavidin-peroxidase conjugate (Dako, Glostrup, Denmark) and developed with DAB substrate system (3,3′-diaminobenzidine; Biozol, Eching, Germany) For immunofluorescence DAPI was used for nuclear staining.
One hypothesis for the disappearance of metastases is that the peptides induce apoptosis of CD44v6-expressing metastatic cells in the secondary organs. In order to test this hypothesis, the experiment described above using the BSp73ASs6 cells was repeated. The cells were injected subcutaneously in syngeneic rats and the tumor was allowed to develop for three weeks. After that time the animals were separated in two groups of 10 animals that were injected either with the specific rat CD44v6 peptide or with the control peptide (mouse) every second day. One day following each injection of the peptide, the lungs of one animal were removed and apoptosis was measured using an antibody that detects the cleaved form of Caspase 3. […] From these experiments, it is concluded that the CD44v6 peptide induces apoptosis of metastatic cells.
To discriminate whether the intrinsic pathway characterized by the release of mitochondrial proteins or the extrinsic pathway activated by ligand-bound death receptors for apoptosis was induced by the v6 peptide the expression of cleaved caspase-8 in the metastases treated with the v6 peptide was investigated. […] From these experiments we conclude that the CD44v6 peptide induces apoptosis of metastatic cells via the extrinsic apoptotic pathway.

[2] = test system: L3.6p1 pancreatic carcinoma cells; test: Human orthotopic model, L3.6p1 cells in the pancreas of nude mice; format: in vivo, mouse; details: for outgrowth / size of the primary tumor: 20 μg per injection i.p. three times per week for three weeks; for outgrowth / size of the primary tumor / metastasis formation (liver): start one week after implantation; for metastasis formation (liver): 20 μg per injection i.p. three times per week
Description: In the case of the human orthotopic model, L3.6p1 pancreatic carcinoma cells (passage 24-26) were suspended in Hank's balanced salt solution (Invitrogen, Karlsruhe, Germany) after trypsinization. The cells were injected orthotopically in the pancreas of male nude mice as described (Bruns C J et al. (1999) Neoplasia 1(1):50-62). Two groups of 15 mice each were injected i.p. 7 days later with either the human v6 peptide respectively rat control peptide (20 μg). For all experiments described and depicted herein either the rat 14mer control peptide or the human 14mer peptide were used. All experiments were then repeated with the rat 5mer control peptide or the human 5mer peptide (N-R-W-H-E, SEQ ID NO: 2). […] The injection was repeated three times per week for 21 days. Two days after the last treatment the animals were killed.
as §1
The three CD44v6 specific compounds (v6 5mer, PEG840-v6 5mer and PEG2000-v6 5mer of human origin) and a control peptide were applied in three concentrations (2 μg, 20 μg, 200 μg per injection) three times per week i.p. for 4 weeks. One week before start of the treatment the L3.6p1 tumor cells were orthotopically implanted into nude mice.
Animals were implanted orthotopically with L3.6p1 cells. Tumor growth was allowed for one week before the treatment with the linear v6 14mer, the cyclic v6 8mer as well as the control peptide (rat v6 14mer) was started. All peptides were injected three times per week at a concentration of 0.2, 2 and 10 μg per injection for 3 weeks. At the end of the treatment animals were sacrificed.
A comparison of different CD44v6 peptide derivatives was performed in animals bearing a orthotopic L3.6p1 tumor. 10 groups of 5 animals each received a dose of 20 μg peptide per injection three times per week for 3 weeks with the compounds listed in Table 4. Three weeks after starting the treatment the animals were sacrificed and analyzed for macroscopic metastases and tumor volume.

[3] = test system: Met activation and downstream signaling to ERK; test: HGF-induced activation of Met and ERK in L3.6p1 cells (western blot); format: cell-based, human; details: HGF 10 ng/ml
Description: Serum-starved cells (24 hours) were induced with the growth factor HGF (10 ng/mL) at 37° C. for 5 minutes. Where indicated, the cells were treated with peptides (100 ng/ml) prior to induction at 37° C. for 10 minutes (100 ng/mL CD44v6 peptide or control peptide). Following the induction with HGF, cells were washed with ice-cold phosphate-buffered saline (PBS). To detect activated Met and Erk, cells were lysed in sodium dodecyl sulfate (SDS)-sample buffer containing 100 mM dithiothreitol (DTT), boiled and subjected to western blot analysis using antibodies against phospho-Met and ERK. The loading controls were performed on the same blot after stripping (62.5 mM Tris, pH 6.8, 2% SDS, 0.8% DTT) by probing with the Met respectively ERK antibody. Blots were stained using the enhanced chemiluminescence system (Thermo Fisher Scientific, Schwerte, Germany). Bands in western blot analysis were quantified with the program Image J (National Institutes of Health).
To expand the studies to human pancreatic tumors, the highly metastatic human pancreatic carcinoma cells L3.6p1 (Bruns, et al. Neoplasia (1999), 1(1):50-62) were investigated. These cells originate from the […] cells that have been passaged several times in the liver and the pancreas, a step that rendered them more and more metastatic. It was confirmed that Met is dependent on CD44v6 for its activation and signaling in these cells (FIG. 4A). The L3.6p1 cells were treated with HGF in the presence or absence of a human v6 peptide of SEQ ID NO: 2 or SEQ ID NO:6 and Met activation and downstream signaling to ERK was measured.

[4] = listed as rat-specific peptide (ctrl peptide)

“mouse control peptides: mouse CD44v6 peptide used as control in the rat system (WFQNGWQGKNP) [reference compound]” was tested, and the “metastasis (axillary lymph nodes and lungs)” value (BSp73ASs6 cells) was “numerous metastases were detected in the lungs”, the “lung metastasis at day twenty-two” value ([1]; injection every second day) was “metastatic spreading was evident in the lungs” and the “apoptotic cells in lung metastases (cleaved Caspase 3)” value [1] was “No apoptosis at all was detected”.

With NRWHE [human 5mer, NRWHE] the “side effects in the animals” value ([2]; 200 μg per injection i.p. three times per week for 4 weeks) was “did not lead to side effects”.

“Myr-KEQWFGNRWHEGYR (Myristoyl-KEQWFGNRWHEGYR) [Myristoyl-14-mer]” was tested, and the “outgrowth / size of the primary tumor” value [2] was “no inhibitory effect on tumor growth”.

With “PEG840-KEQWFGNRWHEGYR-OH [PEG840 14-mer]” the “outgrowth / size of the primary tumor” value [2] was “significant reduction in tumor growth” and the “metastasis formation (liver)” value [2] was “decrease of metastatic spreading”.

With DOTA-cy[KRWHE] [cycl 5 mer] the “outgrowth / size of the primary tumor” value [2] was “strongest reduction of tumor size” and the “metastasis formation (liver)” value [2] was “complete inhibition of metastasis”.

For “Myr-Y-cy[KGNRWHEG] (Myristoyl-YKGNRWHEG; also: cyclic, closure not given here, Myr-Tyr attached, site not given here) [Myr-Y-cycl 8 mer]”, the “outgrowth / size of the primary tumor” value [2] was “significant reduction in tumor growth” and the “metastasis formation (liver)” value [2] was “decrease of metastatic spreading”.

In the case of “{DOTA}-KEQWFGNRWHEGYR [DOTA CD44v6-14 [r^14]]”, the “metastasis formation (liver)” value [2] is reported as “complete inhibition of metastasis”.

In the case of “NEWQG [rat 5mer, rat CD44v6 5mer peptide]”, the “results in the human orthotopic model compared with the 14mer peptides” value ([2]; 20 μg i.p. three times per week for 21 days) is reported as “same results as for the 14mer peptides were observed”, the “inhibition of HGF-induced activation (phosphorylation) of Met and ERK” value [3] is reported as “had no influence on receptor activation and signal transduction” and the “metastasis and micro-metastasis in lung sections (PAS and H&E staining)” value (BSp73ASs6 cells) is reported as “neither metastasis nor micro-metastasis could be detected”. For the same substance, the “outgrowth of primary tumors” value (BSp73ASs6 cells) was “not influenced by either treatment” and the “metastasis (axillary lymph nodes and lungs)” value (BSp73ASs6 cells) was “completely inhibited metastasis”.

“PEG2000-KEQWFGNRWHEGYR-OH [PEG2000 14-mer]” was tested, and the “outgrowth / size of the primary tumor” value [2] was “strongest reduction of tumor size”, the “outgrowth / size of the primary tumor” value ([2]; listed as PEGylated 14mer (PEG 2000)) was “significant reduction in tumor growth” and the “metastasis formation (liver)” value [2] was “decrease of metastatic spreading”.

In the case of “KEKWFENEWQGKNP [rat 14mer, rat CD44v6 14mer peptide; control in human systems]”, the “outgrowth / size of the primary tumor” value [2, 4] is reported as “had no influence on metastasis formation or on growth of the primary tumor”, the “metastasis formation (liver)” value [2, 4] is reported as “neither any influence on metastasis formation; also recorded: had no influence on metastasis formation or on growth of the primary tumor” and the “inhibition of HGF-induced activation (phosphorylation) of Met and ERK” value [3] is reported as “had no influence on receptor activation and signal transduction”. The “metastasis and micro-metastasis in lung sections (PAS and H&E staining)” value (BSp73ASs6 cells) was “neither metastasis nor micro-metastasis could be detected”, the “outgrowth of primary tumors” value (BSp73ASs6 cells) was “not influenced by either treatment” and the “metastasis (axillary lymph nodes and lungs)” value (BSp73ASs6 cells) was “completely inhibited metastasis”. For the same substance, the “apoptosis twelve days after injection” value ([1]; cleaved Caspase 3) was “less apoptosis was observed”, the “time of maximum of apoptosis” value ([1]; cleaved Caspase 3, injection every second day) was “eight days after the first injection” and the “cleaved caspase-8 in lung metastases” value ([1]; injection every second day) was “kinetic of activation of caspase-8 similar to the one obtained for caspase-3”. The “lung metastasis at day twenty-two” value ([1]; injection every second day) was “no metastasis could be detected anymore” and the “apoptotic cells in lung metastases (cleaved Caspase 3)” value [1] was “detected as early as three days after the first injection”.

“DOTA-keqwfGNRWHEGyr [DOTA CD44v6-14 [daa7]]” was tested, and the “metastasis formation (liver)” value [2] was “decrease of metastatic spreading”.
